Assay results: PubChem BioAssay AID330 (DTP/NCI, 2004)
Where “and” joins values, the source holds several entries; their conditions need not be identical. Equal values may be shown once. Inconclusive results and toxic doses are left out. Rule for the calls: active = survival T/C of 150% or more; inactive = T/C below 125% in these data.

Test system: P388 leukemia ip, CD2F1 mice, survival T/C
Assay: NCI In Vivo Anticancer Drug Screen. Data for tumor model P388 Leukemia (intraperitoneal) in CD2F1 (CDF1) mice
Conditions: endpoint: median survival time, higher = longer survival
Summary of the method: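 Mice carrying the transplanted tumor received test compound or vehicle. Survival was recorded in each group, and the value is the treated-group measurement divided by that of the vehicle-treated control group.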

[1] = dose: 50.0 mg/kg/injection, schedule: Q01DX009 (ip), vehicle: saline with Tween-80
[2] = dose: 100.0 mg/kg/injection, schedule: Q01DX009 (ip), vehicle: saline with Tween-80
[3] = dose: 50.0 mg/kg/injection, schedule: Q01DX005 (ip), vehicle: saline with Tween-80
[4] = dose: 100.0 mg/kg/injection, schedule: Q01DX005 (ip), vehicle: saline with Tween-80
[5] = dose: 200.0 mg/kg/injection, schedule: Q01DX005 (ip), vehicle: saline with Tween-80
[6] = dose: 50.0 mg/kg/injection, schedule: Q01DX005 (ip), vehicle: Klucel (hydroxypropylcellulose) (HPC)
[7] = dose: 100.0 mg/kg/injection, schedule: Q01DX005 (ip), vehicle: Klucel (hydroxypropylcellulose) (HPC)
[8] = dose: 200.0 mg/kg/injection, schedule: Q01DX005 (ip), vehicle: Klucel (hydroxypropylcellulose) (HPC)
[9] = dose: 25.0 mg/kg/injection, schedule: Q01DX009 (ip), vehicle: saline with Tween-80
[10] = dose: 25.0 mg/kg/injection, schedule: Q01DX009 (ip), vehicle: saline
[11] = dose: 50.0 mg/kg/injection, schedule: Q01DX009 (ip), vehicle: saline
[12] = dose: 100.0 mg/kg/injection, schedule: Q01DX009 (ip), vehicle: saline
[13] = dose: 200.0 mg/kg/injection, schedule: Q01DX009 (ip), vehicle: saline
[14] = dose: 25.0 mg/kg/injection, schedule: Q01DX009 (ip), vehicle: Klucel (hydroxypropylcellulose) (HPC)
[15] = dose: 50.0 mg/kg/injection, schedule: Q01DX009 (ip), vehicle: Klucel (hydroxypropylcellulose) (HPC)
[16] = dose: 100.0 mg/kg/injection, schedule: Q01DX009 (ip), vehicle: Klucel (hydroxypropylcellulose) (HPC)
[17] = dose: 200.0 mg/kg/injection, schedule: Q01DX009 (ip), vehicle: Klucel (hydroxypropylcellulose) (HPC)
[18] = dose: 100.0 mg/kg/injection, schedule: Q04DX002 (ip), vehicle: saline with Tween-80
[19] = dose: 200.0 mg/kg/injection, schedule: Q04DX002 (ip), vehicle: saline with Tween-80
[20] = dose: 400.0 mg/kg/injection, schedule: Q04DX002 (ip), vehicle: saline with Tween-80
[21] = dose: 60.0 mg/kg/injection, schedule: Q01DX005 (ip), vehicle: Klucel (hydroxypropylcellulose) (HPC)
[22] = dose: 120.0 mg/kg/injection, schedule: Q01DX005 (ip), vehicle: Klucel (hydroxypropylcellulose) (HPC)
[23] = dose: 240.0 mg/kg/injection, schedule: Q01DX005 (ip), vehicle: Klucel (hydroxypropylcellulose) (HPC)

Measured: T/C

C1OC1C1CO1 (centres undefined)
inactive: dose: 10.0 mg/kg/injection, schedule: Q04DX003 (ip), vehicle: saline 113 % of control | dose: 13.2 mg/kg/injection, schedule: Q01DX009 (ip), vehicle: saline 109 % of control | dose: 20.0 mg/kg/injection, schedule: Q04DX003 (ip), vehicle: saline 113 % of control | dose: 30.0 mg/kg/injection, schedule: Q01DX009 (ip), vehicle: saline 118 % of control | dose: 40.0 mg/kg/injection, schedule: Q01DX009 (ip), vehicle: saline 95 % of control | dose: 40.0 mg/kg/injection, schedule: Q04DX003 (ip), vehicle: saline 109 % of control

CC12C(=O)C(c3ccccc3)(C(c3ccccc3)=C1c1ccccc1)C1OC(=O)OC12 (centres undefined)
inactive: [1] 95 % of control | [2] 91 % of control

C=CC1CC(NC(=O)OC)C(=O)O1 (centres undefined)
inactive: [3] 104 % of control | [4] 104 % of control | [5] 99 % of control

O=C(OCC12OC1C(=O)C1OC1C2O)c1ccccc1 (centres undefined)
inactive: dose: 1.88 mg/kg/injection, schedule: Q04DX002 (ip), vehicle: saline with Tween-80 104 % of control | dose: 3.75 mg/kg/injection, schedule: Q04DX002 (ip), vehicle: saline with Tween-80 105 % of control | dose: 7.5 mg/kg/injection, schedule: Q04DX002 (ip), vehicle: saline with Tween-80 101 % of control

CC(=O)N1CC(O)(c2ccccc2)CSc2ccccc21 (centres undefined)
inactive: [6] 95 % of control | [7] 95 % of control | [8] 96 % of control

O=[N+]([O-])C(c1ccccc1)C(c1ccccc1)[N+](=O)[O-] (centres undefined)
inactive: dose: 12.5 mg/kg/injection, schedule: Q01DX005 (ip), vehicle: saline with Tween-80 98 % of control | dose: 25.0 mg/kg/injection, schedule: Q01DX005 (ip), vehicle: saline with Tween-80 101 % of control | [3] 109 % of control and 112 % of control and 119 % of control | [4] 109 % of control and 110 % of control

Clc1nc[nH]c1Cl
inactive: [9] 109 % of control | [1] 100 % of control | [2] 98 % of control

NSc1ccc([N+](=O)[O-])cc1
inactive: dose: 25.0 mg/kg/injection, schedule: Q01DX001 (ip), vehicle: other 109 % of control | dose: 50.0 mg/kg/injection, schedule: Q01DX001 (ip), vehicle: other 100 % of control

CC(C)=CCOc1cc(O)c(CC2=C(O)C(C)(C)C(=O)C(C(=O)C(C)C)=C2O)c(O)c1C(=O)c1ccccc1
inactive: dose: 0.83 mg/kg/injection, schedule: Q01DX005 (ip), vehicle: DMSO 110 % of control | dose: 1.65 mg/kg/injection, schedule: Q01DX005 (ip), vehicle: DMSO 103 % of control | dose: 3.3 mg/kg/injection, schedule: Q01DX005 (ip), vehicle: DMSO 103 % of control | dose: 6.6 mg/kg/injection, schedule: Q01DX005 (ip), vehicle: DMSO 88 % of control

O=c1[nH]cnc2cc3cn[nH]c3cc12
inactive: [3] 91 % of control | [4] 96 % of control | [5] 95 % of control

O=C(Nc1cccc(Cl)c1)/C(Cl)=C1/Sc2ccccc2NC1=O
inactive: [3] 105 % of control | [4] 98 % of control | [5] 98 % of control

CCN(CC)CCN(C)C(=O)C(O)(c1ccccc1)c1ccccc1
inactive: [10] 100 % of control | [11] 104 % of control | [12] 104 % of control | [13] 100 % of control

CC1(C)C/C(=C\c2ccc([N+](=O)[O-])cc2)C(=O)c2ccccc21
inactive: [14] 99 % of control | [15] 100 % of control | [16] 99 % of control | [17] 98 % of control | dose: 400.0 mg/kg/injection, schedule: Q01DX009 (ip), vehicle: Klucel (hydroxypropylcellulose) (HPC) 88 % of control

CN(c1ccc(Cc2ccc(N(C)S(C)(=O)=O)cc2)cc1)S(C)(=O)=O
inactive: dose: 50.0 mg/kg/injection, schedule: Q04DX002 (ip), vehicle: saline with Tween-80 110 % of control | [18] 101 % of control | [19] 94 % of control | [20] 92 % of control

COC(=O)/C(=C/c1c[nH]c2ccccc12)NC=O
inactive: [21] 97 % of control | [22] 97 % of control | [23] 92 % of control

CNc1nc(OC)nc2c1cnn2C1CCCCO1 (centres undefined)
inactive: [18] 97 % of control | [19] 100 % of control | [20] 94 % of control

COc1ccc2c(c1OC)Oc1c(OC)ccc3c1C(C2)N(C)C[C@@H]3O (some centres undefined)
inactive: dose: 5.75 mg/kg/injection, schedule: Q01DX005 (ip), vehicle: Klucel (hydroxypropylcellulose) (HPC) 103 % of control | dose: 11.5 mg/kg/injection, schedule: Q01DX005 (ip), vehicle: Klucel (hydroxypropylcellulose) (HPC) 109 % of control | dose: 23.0 mg/kg/injection, schedule: Q01DX005 (ip), vehicle: Klucel (hydroxypropylcellulose) (HPC) 100 % of control | dose: 46.0 mg/kg/injection, schedule: Q01DX005 (ip), vehicle: Klucel (hydroxypropylcellulose) (HPC) 99 % of control

O=C1O[C@@H]2C3COC(O)[C@](O)(O3)[C@@H]2/C1=C\c1ccc(O)cc1 (some centres undefined)
inactive: dose: 4.0 mg/kg/injection, schedule: Q01DX005 (ip), vehicle: DMSO 115 % of control | dose: 8.0 mg/kg/injection, schedule: Q01DX005 (ip), vehicle: DMSO 109 % of control | dose: 16.0 mg/kg/injection, schedule: Q01DX005 (ip), vehicle: DMSO 113 % of control | dose: 32.0 mg/kg/injection, schedule: Q01DX005 (ip), vehicle: DMSO 113 % of control

Clc1ccc2c(c1)nc(-c1ccccn1)n2CCc1ccncc1
inactive: dose: 25.0 mg/kg/injection, schedule: Q01DX005 (ip), vehicle: Klucel (hydroxypropylcellulose) (HPC) 100 % of control | [6] 95 % of control | [7] 99 % of control | [8] 99 % of control

C=C1C(=O)N2c3ccccc3C(C)(C)C2(S)C(=O)N1C (centres undefined)
inactive: [11] 102 % of control | [12] 100 % of control | [13] 100 % of control

COC(=O)c1nc(=S)[nH]c(C(=O)OC)c1C(=O)c1c(C)[nH]c2ccccc12
inactive: [21] 98 % of control | [22] 96 % of control | [23] 95 % of control

COc1ccc(/C=C/C(=N/NC(=O)c2ccccc2)C(C)CN(C)C)cc1 (centres undefined)
inactive: [21] 104 % of control | [22] 111 % of control

Cc1ccc(NC(=O)NC(=O)CCl)cc1
inactive: dose: 6.25 mg/kg/injection, schedule: Q01DX009 (ip), vehicle: Klucel (hydroxypropylcellulose) (HPC) 105 % of control | dose: 12.5 mg/kg/injection, schedule: Q01DX009 (ip), vehicle: Klucel (hydroxypropylcellulose) (HPC) 99 % of control | [14] 101 % of control and 105 % of control | [9] 92 % of control | [15] 104 % of control and 108 % of control and 113 % of control | [16] 123 % of control | [2] 106 % of control

CCOC(=O)/C(C#N)=C(\O)CCCC(=O)O
inactive: [15] 88 % of control | [16] 91 % of control | [17] 90 % of control

CCOC(=O)COc1ccc2c(=O)c(C)c(-c3ccccc3)oc2c1
inactive: [11] 97 % of control | [12] 101 % of control | [13] 97 % of control

CSc1nccnn1
inactive: dose: 6.25 mg/kg/injection, schedule: Q01DX009 (ip), vehicle: saline 109 % of control | dose: 12.5 mg/kg/injection, schedule: Q01DX009 (ip), vehicle: saline 115 % of control | [10] 108 % of control and 116 % of control | [11] 118 % of control | [12] 120 % of control

CCC[CH2][Hg][O]C(C)=O
inactive: dose: 2.0 mg/kg/injection, schedule: Q01DX009 (ip), vehicle: other 95 % of control | dose: 3.0 mg/kg/injection, schedule: Q01DX009 (ip), vehicle: other 100 % of control | dose: 4.5 mg/kg/injection, schedule: Q01DX009 (ip), vehicle: other 113 % of control

Clc1cnc(Oc2ccccc2)c2ccccc12
inactive: [3] 104 % of control | [4] 103 % of control | [5] 88 % of control
